Reference: US8598182B2, “Insecticidal pyrimidinyl aryl hyrdrazones” (Dow AgroSciences, LLC., priority 2007, dated 2013)

Columns and labels:
[1] = tested on: Corn Earworm (Helicoverpa zea); test: Insecticidal diet-surface test for corn earworm; assay type: in vivo; settings: second-instar corn earworm, 50 ug/cm2 on diet surface, 5 days after treatment, dead insects of 8
Method: (§1) The compounds identified in Table 1 were prepared using the procedures illustrated in the foregoing examples, and the compounds were tested against beet armyworm and corn earworm as follows:
(§2) Insecticidal Test for Corn Earworm (Helicoverpa zea) and Beet Armyworm (Spodoptera exigua).
(§3) To prepare test solution, the test compound was formulated at 2000 ppm solution as 4 mg/2 mL of 9 acetone:1 tap water. 50 μL of the 2000 ppm (equivalent to 50 ug/cm^2 dose on diet surface area) test solution was pipetted upon the surface of 1 mL of lepidopteran diet (Southland Multi-Species Lepidopteran Diet) contained in each of eight wells per insect species (one well=1 replication). A second-instar corn earworm and beet armyworm was placed upon the treated diet in each well once the solvent had air-dried. Trays containing the treated diet and larvae were covered and then held in a growth chamber at 25° C., 50-55% RH, and 16 hr light:8 hr dark for 5 days. Observation were conducted 5 days after treatment and infestation. The number of dead insects of 8 per species per treatment was then determined and the results are given in Table 1 as percent control at a dose of […].
(§4) Keys to the table: Mass spectral data were obtained using liquid chromatography mass spectroscopy (LC-MS). The masses are detected using electrospray ionization (ESI) and reported as Mol Ion (M+H, M−H); AVG LAPHEG 50 refers to activity against beet army worm (Spodoptera exigua) as defined above; AVG HELIZE 50 refers to activity against corn ear worm (Helicoverpa zea) as described above.

[2] = tested on: Beet Armyworm (Spodoptera exigua); test: Insecticidal diet-surface test for beet armyworm; assay type: in vivo; settings: second-instar beet armyworm, 50 ug/cm2 on diet surface, 5 days after treatment, dead insects of 8
Method: as §1, §2, §3, §4

Structure (SMILES)	HELIZE 50 (ug/cm2), percent control [1]	LAPHEG 50 (ug/cm2), percent control [2]
Clc1cccc(/C=N/Nc2nc(Cl)cc(Nc3cccc(Br)c3)n2)c1 [Compound 35]	25%	0%
Fc1ccc(Nc2nc(N/N=C/c3ccc(OC(F)(F)F)cc3)nc(Cl)c2Cl)cc1C(F)(F)F [Compound 41]	75%	0%
Clc1cccc(Nc2cc(Cl)nc(N/N=C/c3ccc(N4CCCC4)cc3)n2)c1 [Compound 44]	50%	0%
COc1ccc(/C=N/Nc2nc(Cl)cc(Nc3ccc(Cl)cc3)n2)cc1 [Compound 29]	0%	63%
Fc1ccc(Nc2cc(OCC(F)(F)F)nc(N/N=C/c3ccc(OC(F)(F)F)cc3)n2)cc1C(F)(F)F [Compound 63]	100%	100%
Fc1ccc(Nc2cc(Cl)nc(N/N=C/c3cccc(OC(F)(F)C(F)F)c3)n2)cc1C(F)(F)F [Compound 30]	13%	100%
Fc1ccc(Nc2ccnc(N/N=C/c3ccc(OC(F)(F)C(F)F)cc3)n2)cc1C(F)(F)F [Compound 4]	100%	100%
CCOc1ccc(/C=N/Nc2nc(Cl)cc(Nc3ccc(F)c(C(F)(F)F)c3)n2)cn1 [Compound 67]	100%	100%
FC(F)(F)Oc1ccc(/C=N/Nc2nc(Cl)cc(Nc3cccc(Br)c3)n2)cc1 [Compound 37]	100%	100%
FC(F)C(F)(F)Oc1ccc(Nc2cc(Cl)nc(N/N=C/c3ccc(OC(F)(F)F)cc3)n2)cc1 [Compound 6]	100%	100%
Fc1ccc(Nc2cc(N/N=C/c3ccc(OC(F)(F)C(F)F)cc3)nc(NCc3ccc(Cl)nc3)n2)cc1C(F)(F)F [Compound 81]	100%	0%
Fc1ccc(Nc2ccnc(N/N=C/c3ccc(OC(F)(F)F)cc3)n2)cc1C(F)(F)F [Compound 80]	100%	100%
Fc1ccc(Nc2cc(C(F)(F)F)nc(N/N=C/c3ccc(OC(F)(F)F)cc3)n2)cc1C(F)(F)F [Compound 56]	100%	100%
Fc1cnc(N/N=C/c2ccc(OC(F)(F)F)cc2)nc1Nc1ccc(OC(F)(F)F)cc1 [Compound 13]	100%	0%
FC(F)(F)Oc1ccc(/C=N/Nc2nc(Nc3ccc(OC(F)(F)F)cc3)cc(C(F)(F)F)n2)cc1 [Compound 60]	100%	100%
Clc1cc(Nc2cccc(Br)c2)nc(N/N=C/c2ccccc2Cl)n1 [Compound 34]	13%	25%
Fc1cnc(Nc2cccc(C(F)(F)F)c2)nc1NN=Cc1ccc(OC(F)(F)F)cc1 [Compound 79]	100%	100%
Fc1ccc(Nc2nccc(N/N=C/c3ccc(OC(F)(F)C(F)F)cc3)n2)cc1C(F)(F)F [Compound 77]	100%	100%
Fc1ccc(/C=N/Nc2nc(Cl)cc(Nc3cccc(Cl)c3)n2)cc1C(F)(F)F [Compound 51]	50%	75%
FC(F)(F)Oc1ccc(/C=N/Nc2cc(Nc3cc(Cl)cc(C(F)(F)F)c3)nc(Cl)n2)cc1 [Compound 83]	100%	100%
Fc1ccc(/C=N/Nc2nc(Cl)cc(Nc3cccc(OC(F)(F)C(F)F)c3)n2)cc1C(F)(F)F [Compound 48]	88%	25%

Structure (SMILES)	HELIZE 50 (ug/cm2), percent control [1]	LAPHEG 50 (ug/cm2), percent control [2]
Fc1ccc(Nc2cc(Cl)nc(N/N=C/c3ccc(Cl)cc3)n2)cc1C(F)(F)F [Compound 11]	100%	100%
FC(F)(F)COc1ccc(/C=N/Nc2nc(Cl)cc(Nc3cccc(Cl)c3)n2)cn1 [Compound 71]	100%	100%
OC(c1cccc(Nc2cc(Cl)nc(N/N=C/c3ccc(OC(F)(F)C(F)F)cc3)n2)c1)C(F)(F)F (stereo not drawn) [Compound 50]	0%	63%
FC(F)(F)Oc1ccc(Nc2nccc(N/N=C/c3ccc(C(F)(F)F)cc3)n2)cc1 [Compound 74]	100%	100%
FC(F)C(F)(F)Oc1ccc(/C=N/Nc2nc(Cl)cc(Nc3ccc(OC(F)(F)C(F)F)cc3)n2)cc1 [Compound 5]	88%	100%
Clc1ccc(/C=N/Nc2nc(Cl)cc(Nc3cccc(Cl)c3)n2)cc1 [Compound 32]	88%	0%
Fc1cnc(N/N=C/c2ccc(Cl)cc2)nc1Nc1ccc(OC(F)(F)F)cc1 [Compound 16]	100%	100%
Fc1ccc(Nc2cc(Cl)nc(N/N=C/c3ccc(C(F)(F)F)nc3)n2)cc1C(F)(F)F [Compound 68]	100%	100%
Clc1ccc(Nc2cc(Cl)nc(N/N=C/c3cccc(Cl)c3)n2)cc1 [Compound 28]	50%	50%
Fc1ccc(Nc2nc(N/N=C/c3ccc(OC(F)(F)C(F)F)cc3)nc(Cl)c2Cl)cc1C(F)(F)F [Compound 42]	38%	38%
FC(F)C(F)(F)Oc1cccc(Nc2cc(Cl)nc(N/N=C/c3ccc(C(F)(F)F)nc3)n2)c1 [Compound 69]	0%	75%
Fc1cc(Nc2ccc(OC(F)(F)C(F)F)cc2)nc(NN=Cc2ccc(OC(F)(F)C(F)F)cc2)n1 [Compound 20]	25%	50%
FC(F)(F)Oc1ccc(/C=N/Nc2nc(Nc3cccc(C(F)(F)F)c3)cc(C(F)(F)F)n2)cc1 [Compound 54]	100%	100%
FC(F)C(F)(F)Oc1ccc(Nc2cc(Cl)nc(N/N=C/c3ccc(Cl)cc3)n2)cc1 [Compound 10]	88%	63%
OC(c1ccc(Nc2cc(F)nc(NN=Cc3ccc(OC(F)(F)F)cc3)n2)cc1)(C(F)(F)F)C(F)(F)F [Compound 21]	100%	100%
FC(F)(F)Oc1ccc(/C=N/Nc2nc(Cl)cc(Nc3cccc(Cl)c3)n2)cc1 [Compound 39]	100%	100%
FC(F)C(F)(F)Oc1cccc(/C=N/Nc2nc(Cl)cc(Nc3ccc(Cl)cc3)n2)c1 [Compound 45]	63%	63%
OC(c1cccc(Nc2cc(Cl)nc(N/N=C/c3ccc(OC(F)(F)F)cc3)n2)c1)C(F)(F)F (stereo not drawn) [Compound 49]	50%	88%
Fc1ccc(Nc2cc(N/N=C/c3ccc(C(F)(F)F)nc3)ncn2)cc1C(F)(F)F [Compound 86]	100%	100%
Fc1ccc(Nc2nc(Cl)cc(N/N=C/c3ccc(OC(F)(F)C(F)F)cc3)n2)cc1C(F)(F)F [Compound 76]	25%	38%
CN(/N=C/c1ccc(OC(F)(F)C(F)F)cc1)c1nc(Cl)cc(Nc2ccc(F)c(C(F)(F)F)c2)n1 [Compound 58]	100%	100%
